Test results as given in ChEMBL document CHEMBL3638647, “Compounds useful as inhibitors of ATR kinase” (2014).

Target: Serine/threonine-protein kinase ATR (Homo sapiens, UniProt Q13535)
Experiment: Inhibition Assay: Compounds were screened for their ability to inhibit ATR kinase using a radioactive-phosphate incorporation assay. Assays were carried out in a mixture of 50 mM Tris/HCl (pH 7.5), 10 mM MgCl2 and 1 mM DTT. Final substrate concentrations were 10 Î¼M [Î³-33P]ATP (3mCi 33P ATP/mmol ATP, Perkin Elmer) and 800 Î¼M target peptide (ASELPASQPQPFSAKKK).Assays were carried out at 25° C. in the presence of 5 nM full-length ATR. An assay stock buffer solution was prepared containing all of the reagents listed above, with the exception of ATP and the test compound of interest. 13.5 Î¼L of the stock solution was placed in a 96 well plate followed by addition of 2 Î¼L of DMSO stock containing serial dilutions of the test compound (typically starting from a final concentration of 15 Î¼M with 3-fold serial dilutions) in duplicate (final DMSO concentration 7%). The plate was pre-incubated for 10 minutes at 25° C. and the reaction initiated by addition of 15 Î¼L [Î³-33P]ATP.

Chain of Serine/threonine-protein kinase ATR (Q13535 whole entry): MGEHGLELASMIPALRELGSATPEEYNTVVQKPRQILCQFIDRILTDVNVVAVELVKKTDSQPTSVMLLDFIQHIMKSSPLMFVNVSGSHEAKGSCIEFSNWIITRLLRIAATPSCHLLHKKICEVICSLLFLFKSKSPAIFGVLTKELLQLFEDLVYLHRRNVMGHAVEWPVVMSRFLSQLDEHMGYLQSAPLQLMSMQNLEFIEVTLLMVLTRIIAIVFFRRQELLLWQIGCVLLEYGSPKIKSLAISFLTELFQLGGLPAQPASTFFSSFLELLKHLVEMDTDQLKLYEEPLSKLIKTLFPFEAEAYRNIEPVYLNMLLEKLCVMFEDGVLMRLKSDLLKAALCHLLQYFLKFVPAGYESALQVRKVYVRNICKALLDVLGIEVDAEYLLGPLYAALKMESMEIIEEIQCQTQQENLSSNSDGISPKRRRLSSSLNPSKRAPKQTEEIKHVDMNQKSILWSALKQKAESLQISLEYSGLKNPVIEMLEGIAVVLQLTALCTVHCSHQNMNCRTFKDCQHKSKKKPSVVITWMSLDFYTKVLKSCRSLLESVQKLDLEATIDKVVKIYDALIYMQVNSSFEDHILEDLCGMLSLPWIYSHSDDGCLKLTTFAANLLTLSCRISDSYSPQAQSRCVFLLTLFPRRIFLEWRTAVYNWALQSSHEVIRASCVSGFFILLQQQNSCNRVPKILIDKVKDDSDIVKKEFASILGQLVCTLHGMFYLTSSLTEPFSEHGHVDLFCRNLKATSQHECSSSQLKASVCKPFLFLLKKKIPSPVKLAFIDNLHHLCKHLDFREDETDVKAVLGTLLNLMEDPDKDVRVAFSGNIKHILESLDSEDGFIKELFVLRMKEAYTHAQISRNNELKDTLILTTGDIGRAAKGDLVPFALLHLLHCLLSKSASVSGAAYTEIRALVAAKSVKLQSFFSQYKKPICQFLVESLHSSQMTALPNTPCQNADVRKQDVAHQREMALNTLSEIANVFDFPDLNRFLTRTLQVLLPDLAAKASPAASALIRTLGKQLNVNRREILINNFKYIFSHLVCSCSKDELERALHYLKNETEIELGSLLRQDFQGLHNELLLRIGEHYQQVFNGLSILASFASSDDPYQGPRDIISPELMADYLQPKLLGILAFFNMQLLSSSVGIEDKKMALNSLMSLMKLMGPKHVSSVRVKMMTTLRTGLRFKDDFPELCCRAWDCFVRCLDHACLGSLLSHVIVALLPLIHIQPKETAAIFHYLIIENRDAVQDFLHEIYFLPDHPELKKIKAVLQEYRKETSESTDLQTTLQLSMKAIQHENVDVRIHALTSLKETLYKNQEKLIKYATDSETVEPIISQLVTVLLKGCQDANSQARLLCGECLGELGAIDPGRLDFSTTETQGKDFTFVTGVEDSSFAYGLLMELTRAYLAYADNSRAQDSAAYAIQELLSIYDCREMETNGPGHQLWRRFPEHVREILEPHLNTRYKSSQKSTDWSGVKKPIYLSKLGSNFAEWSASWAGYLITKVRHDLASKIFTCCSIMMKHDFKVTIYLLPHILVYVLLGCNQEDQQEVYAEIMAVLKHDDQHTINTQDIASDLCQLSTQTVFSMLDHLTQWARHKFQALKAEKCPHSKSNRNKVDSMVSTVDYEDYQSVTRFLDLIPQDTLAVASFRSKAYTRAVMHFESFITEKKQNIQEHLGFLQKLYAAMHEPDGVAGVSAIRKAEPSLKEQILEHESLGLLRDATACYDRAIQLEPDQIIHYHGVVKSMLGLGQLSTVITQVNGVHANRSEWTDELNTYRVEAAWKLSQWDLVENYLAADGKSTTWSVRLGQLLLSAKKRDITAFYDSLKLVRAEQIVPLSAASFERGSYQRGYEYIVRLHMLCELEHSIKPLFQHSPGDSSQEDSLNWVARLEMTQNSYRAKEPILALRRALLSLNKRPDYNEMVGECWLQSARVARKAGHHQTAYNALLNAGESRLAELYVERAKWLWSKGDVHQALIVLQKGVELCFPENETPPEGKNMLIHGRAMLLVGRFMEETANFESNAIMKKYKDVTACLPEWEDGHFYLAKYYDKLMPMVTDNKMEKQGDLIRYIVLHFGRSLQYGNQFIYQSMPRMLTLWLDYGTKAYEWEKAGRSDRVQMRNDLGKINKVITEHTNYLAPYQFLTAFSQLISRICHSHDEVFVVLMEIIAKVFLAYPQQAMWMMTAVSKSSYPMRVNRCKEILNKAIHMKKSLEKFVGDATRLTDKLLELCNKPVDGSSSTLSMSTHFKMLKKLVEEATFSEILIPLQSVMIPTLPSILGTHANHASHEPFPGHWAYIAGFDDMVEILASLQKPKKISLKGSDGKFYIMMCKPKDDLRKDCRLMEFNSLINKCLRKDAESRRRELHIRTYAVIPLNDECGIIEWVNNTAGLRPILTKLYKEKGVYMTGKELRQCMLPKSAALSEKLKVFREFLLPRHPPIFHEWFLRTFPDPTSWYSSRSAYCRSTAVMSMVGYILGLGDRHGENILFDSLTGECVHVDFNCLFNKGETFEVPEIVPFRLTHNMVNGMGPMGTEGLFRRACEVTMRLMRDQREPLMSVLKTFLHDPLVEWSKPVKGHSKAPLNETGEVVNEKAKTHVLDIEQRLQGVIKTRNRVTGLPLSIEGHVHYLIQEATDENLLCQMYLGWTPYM

## CNCc1ccc(C2=NOC(c3nc(-c4ccc(S(=O)(=O)C(C)C)cc4)cnc3N)C2)cc1 (stereo unspecified)
  Ki: 90 nM
